The source made the active and inactive calls.
Columns and labels:
[1] = DRD fibroblast viability loss – cell-based, non-viral oncogenic, luminescence, dose response (AID 1934); type: functional; details: Homo sapiens
[2] = cells
[3] = biological target: T1, Histone-lysine N-methyltransferase NSD2 (Homo sapiens, UniProt O96028); type: biochemical
T1 sequence (O96028 whole entry): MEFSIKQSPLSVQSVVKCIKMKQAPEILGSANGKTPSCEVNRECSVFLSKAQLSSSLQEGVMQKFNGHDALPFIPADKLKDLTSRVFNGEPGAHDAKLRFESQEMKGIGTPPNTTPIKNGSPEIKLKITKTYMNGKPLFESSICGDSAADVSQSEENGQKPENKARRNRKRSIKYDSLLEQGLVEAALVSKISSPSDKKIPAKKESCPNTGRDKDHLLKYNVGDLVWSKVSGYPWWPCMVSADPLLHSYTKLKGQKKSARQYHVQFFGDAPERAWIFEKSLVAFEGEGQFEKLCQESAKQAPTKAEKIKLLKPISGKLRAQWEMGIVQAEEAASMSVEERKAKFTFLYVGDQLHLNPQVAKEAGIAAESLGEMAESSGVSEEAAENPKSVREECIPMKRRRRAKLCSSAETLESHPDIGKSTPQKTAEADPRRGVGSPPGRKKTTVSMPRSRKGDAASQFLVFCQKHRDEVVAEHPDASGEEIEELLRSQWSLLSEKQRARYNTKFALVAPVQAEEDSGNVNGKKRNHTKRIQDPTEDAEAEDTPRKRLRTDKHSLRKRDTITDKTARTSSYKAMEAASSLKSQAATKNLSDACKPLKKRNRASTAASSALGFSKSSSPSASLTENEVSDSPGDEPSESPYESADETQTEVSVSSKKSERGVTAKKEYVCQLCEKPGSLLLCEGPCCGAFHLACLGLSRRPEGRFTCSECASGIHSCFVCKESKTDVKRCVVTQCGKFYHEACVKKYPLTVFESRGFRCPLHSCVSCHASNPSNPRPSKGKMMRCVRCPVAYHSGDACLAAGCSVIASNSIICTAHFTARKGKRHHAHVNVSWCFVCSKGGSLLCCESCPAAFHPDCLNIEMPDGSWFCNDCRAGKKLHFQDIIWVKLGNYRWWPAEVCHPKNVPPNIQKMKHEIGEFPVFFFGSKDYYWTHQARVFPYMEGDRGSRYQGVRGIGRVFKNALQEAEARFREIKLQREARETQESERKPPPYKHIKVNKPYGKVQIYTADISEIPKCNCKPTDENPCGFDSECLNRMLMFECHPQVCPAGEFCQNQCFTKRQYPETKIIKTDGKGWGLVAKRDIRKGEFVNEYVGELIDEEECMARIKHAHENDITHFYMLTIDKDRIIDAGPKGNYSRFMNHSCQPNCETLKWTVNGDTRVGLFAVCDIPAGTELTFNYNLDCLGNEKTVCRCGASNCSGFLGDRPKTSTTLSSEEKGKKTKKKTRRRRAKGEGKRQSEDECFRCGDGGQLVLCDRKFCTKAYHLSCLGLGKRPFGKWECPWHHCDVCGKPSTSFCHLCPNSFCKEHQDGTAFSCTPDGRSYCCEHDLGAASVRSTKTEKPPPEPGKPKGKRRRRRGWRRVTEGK

[4] = biological target: RNA-editing ligase 1, mitochondrial (Trypanosoma brucei brucei, UniProt P86926); assay: inhibition of trypanosome RNA editing ligase – biochemical, fluorescence, Trypanosoma brucei, dose response (AID 1117295); type: functional
[5] = biological target: Phospholipase A2 (Homo sapiens, UniProt P04054); type: functional;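 further: confirmatory dose-response counterscreen on phospholipase A2, testing hits that came from an ultra-high-throughput screen for ATG4B inhibitors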
[6] = biological target: Mitochondrial peptide methionine sulfoxide reductase (Bos taurus, UniProt P54149); type: functional;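 further: absorbance read-out, biochemical high-throughput dose-response screen for MsrA inhibitors, confirmatory; recombinant bovine MsrA coupled to E. coli TrxB with NADPH and selenocystamine; potency is for inhibitors of MsrA activity on DMSO substrate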
[7] = biological target: T2, 1-phosphatidylinositol 4,5-bisphosphate phosphodiesterase gamma-1 (Homo sapiens, UniProt P19174); assay: Counterscreen for inhibitors of phospholipase C isozymes (PLC-B3): Fluorescence-based biochemical high throughput dose response assay to identify inhibitors of phospholipase C isozymes (PLC-gamma1).
T2 sequence (P19174 whole entry): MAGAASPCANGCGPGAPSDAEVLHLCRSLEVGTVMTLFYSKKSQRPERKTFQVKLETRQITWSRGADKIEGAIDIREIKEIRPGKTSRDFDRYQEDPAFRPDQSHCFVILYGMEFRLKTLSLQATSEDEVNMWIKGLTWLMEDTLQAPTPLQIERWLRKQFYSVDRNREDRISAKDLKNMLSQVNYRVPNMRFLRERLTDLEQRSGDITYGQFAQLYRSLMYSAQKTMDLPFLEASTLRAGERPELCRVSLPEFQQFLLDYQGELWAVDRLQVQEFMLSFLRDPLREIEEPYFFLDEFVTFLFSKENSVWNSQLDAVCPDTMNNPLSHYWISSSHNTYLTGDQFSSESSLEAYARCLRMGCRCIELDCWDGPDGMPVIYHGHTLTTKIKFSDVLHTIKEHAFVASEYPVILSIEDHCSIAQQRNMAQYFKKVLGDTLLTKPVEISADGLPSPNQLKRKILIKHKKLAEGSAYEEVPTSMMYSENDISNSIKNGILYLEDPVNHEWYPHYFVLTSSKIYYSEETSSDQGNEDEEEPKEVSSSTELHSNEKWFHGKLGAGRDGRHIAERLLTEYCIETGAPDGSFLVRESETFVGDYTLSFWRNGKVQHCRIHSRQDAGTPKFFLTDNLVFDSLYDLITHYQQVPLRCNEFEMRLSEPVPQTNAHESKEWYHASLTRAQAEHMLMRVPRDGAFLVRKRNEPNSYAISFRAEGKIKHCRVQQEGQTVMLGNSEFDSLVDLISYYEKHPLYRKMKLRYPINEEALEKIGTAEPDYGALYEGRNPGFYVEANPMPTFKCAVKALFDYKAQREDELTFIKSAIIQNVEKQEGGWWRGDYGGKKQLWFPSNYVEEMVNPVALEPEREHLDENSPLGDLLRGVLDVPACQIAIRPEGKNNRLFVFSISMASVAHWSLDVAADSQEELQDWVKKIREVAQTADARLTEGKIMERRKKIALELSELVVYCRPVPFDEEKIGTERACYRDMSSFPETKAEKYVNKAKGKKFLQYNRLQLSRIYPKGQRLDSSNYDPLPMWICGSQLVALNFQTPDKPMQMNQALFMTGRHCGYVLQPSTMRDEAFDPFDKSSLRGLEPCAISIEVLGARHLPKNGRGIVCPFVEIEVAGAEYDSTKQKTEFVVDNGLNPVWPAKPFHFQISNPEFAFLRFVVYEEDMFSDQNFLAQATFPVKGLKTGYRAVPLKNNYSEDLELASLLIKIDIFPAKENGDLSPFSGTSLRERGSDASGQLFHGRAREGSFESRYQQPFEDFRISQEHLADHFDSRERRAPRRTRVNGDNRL

Chain of Mitochondrial peptide methionine sulfoxide reductase (P54149 whole entry): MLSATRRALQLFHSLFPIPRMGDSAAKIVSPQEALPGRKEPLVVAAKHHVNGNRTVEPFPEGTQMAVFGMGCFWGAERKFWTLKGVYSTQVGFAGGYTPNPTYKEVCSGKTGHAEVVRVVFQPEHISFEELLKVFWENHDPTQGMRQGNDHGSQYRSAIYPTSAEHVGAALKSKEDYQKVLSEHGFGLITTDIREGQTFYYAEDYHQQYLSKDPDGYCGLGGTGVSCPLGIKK
Chain of Phospholipase A2 (P04054 whole entry): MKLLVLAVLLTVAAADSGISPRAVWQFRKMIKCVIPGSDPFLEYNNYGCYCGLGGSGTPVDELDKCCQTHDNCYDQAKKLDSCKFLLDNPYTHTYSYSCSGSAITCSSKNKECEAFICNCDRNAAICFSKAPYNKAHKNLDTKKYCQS
Chain of RNA-editing ligase 1, mitochondrial (P86926 whole entry): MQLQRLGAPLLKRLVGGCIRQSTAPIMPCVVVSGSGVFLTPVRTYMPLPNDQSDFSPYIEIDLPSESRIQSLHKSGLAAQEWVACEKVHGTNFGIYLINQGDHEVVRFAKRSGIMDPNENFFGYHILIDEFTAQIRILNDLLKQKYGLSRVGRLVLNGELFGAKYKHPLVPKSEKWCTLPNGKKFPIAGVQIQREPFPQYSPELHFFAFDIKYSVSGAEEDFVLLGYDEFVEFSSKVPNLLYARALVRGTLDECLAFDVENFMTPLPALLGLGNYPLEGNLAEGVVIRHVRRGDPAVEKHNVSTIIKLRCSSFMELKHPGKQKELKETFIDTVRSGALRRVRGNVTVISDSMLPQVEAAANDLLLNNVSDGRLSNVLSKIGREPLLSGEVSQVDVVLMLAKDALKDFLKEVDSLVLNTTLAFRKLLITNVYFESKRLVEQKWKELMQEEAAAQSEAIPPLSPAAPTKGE

For `COC(=O)C[C@]1(C(=O)OC)CN(C#N)N(c2ccc(Cl)cc2)C12c1ccccc1-c1ccccc12`, the EC50 [1] was 3.62 µM (active).
With `O=C(Nc1ccc(C#Cc2ccccc2)cc1)C1CC1` the IC50 [2] was 7.09 µM (active).
With `CCCCn1c(NC(=O)c2ccco2)c(C(=O)OCC)c2nc3ccccc3nc21` the AC50 [3] was 2.94 µM (active) and the IC50 [4] was 21.8 µM (inactive).
With `Cc1ccccc1NC1=C/C(=N\S(=O)(=O)c2ccc(C(=O)O)cc2)c2ccccc2C1=O` the IC50 [5] was 15.4 µM (active), the IC50 [6] was 62.4 µM (inactive) and the AC50 [3] was 0.117 µM (active). The IC50 [7] was 90.1 µM (inactive).
For `Cc1ccc(NC2=C/C(=N/S(=O)(=O)c3cccs3)c3ccccc3C2=O)cc1`, the IC50 [6] was 425 µM (inactive).

From ChEMBL document CHEMBL1201862, “PubChem BioAssay data set” (2004)
